This assay has as its system P388 leukemia ip, CD2F1 mice, survival T/C. The assay is described as follows: NCI In Vivo Anticancer Drug Screen. Data for tumor model P388 Leukemia (intraperitoneal) in CD2F1 (CDF1) mice. The conditions noted are these: endpoint: median survival time, higher = longer survival. The method, boiled down:
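Mice carrying the transplanted tumor received test compound or vehicle. Survival was recorded in each group, and the value is the treated-group measurement divided by that of the vehicle-treated control group.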

Setting [1] is: dose: 60.0 mg/kg/injection, schedule: Q01DX005 (ip), vehicle: saline.
Setting [2] is: dose: 120.0 mg/kg/injection, schedule: Q01DX005 (ip), vehicle: saline.
[3] abbreviates: dose: 240.0 mg/kg/injection, schedule: Q01DX005 (ip), vehicle: saline.
Where [4] appears, read: dose: 50.0 mg/kg/injection, schedule: Q04DX003 (ip), vehicle: saline with Tween-80.
Where [5] appears, read: dose: 100.0 mg/kg/injection, schedule: Q04DX003 (ip), vehicle: saline with Tween-80.
[6] abbreviates: dose: 50.0 mg/kg/injection, schedule: Q01DX005 (ip), vehicle: Klucel (hydroxypropylcellulose) (HPC).
The mark [7] stands for this setting: dose: 100.0 mg/kg/injection, schedule: Q01DX005 (ip), vehicle: Klucel (hydroxypropylcellulose) (HPC).
The mark [8] stands for this setting: dose: 200.0 mg/kg/injection, schedule: Q01DX005 (ip), vehicle: Klucel (hydroxypropylcellulose) (HPC).
The mark [9] stands for this setting: dose: 50.0 mg/kg/injection, schedule: Q01DX009 (ip), vehicle: saline with Tween-80.
Setting [10] is: dose: 100.0 mg/kg/injection, schedule: Q01DX009 (ip), vehicle: saline with Tween-80.
[11] abbreviates: dose: 50.0 mg/kg/injection, schedule: Q01DX009 (ip), vehicle: Klucel (hydroxypropylcellulose) (HPC).
Setting [12] is: dose: 100.0 mg/kg/injection, schedule: Q01DX009 (ip), vehicle: Klucel (hydroxypropylcellulose) (HPC).
The mark [13] stands for this setting: dose: 200.0 mg/kg/injection, schedule: Q01DX009 (ip), vehicle: Klucel (hydroxypropylcellulose) (HPC).
[14] abbreviates: dose: 50.0 mg/kg/injection, schedule: Q01DX005 (ip), vehicle: saline with Tween-80.
The mark [15] stands for this setting: dose: 25.0 mg/kg/injection, schedule: Q01DX009 (ip), vehicle: saline with Tween-80.
Setting [16] is: dose: 200.0 mg/kg/injection, schedule: Q01DX009 (ip), vehicle: saline with Tween-80.
[17] abbreviates: dose: 100.0 mg/kg/injection, schedule: Q01DX005 (ip), vehicle: saline with Tween-80.
The mark [18] stands for this setting: dose: 200.0 mg/kg/injection, schedule: Q04DX003 (ip), vehicle: saline with Tween-80.

Several values for one entry are separate records, joined by “and”; a condition that tells them apart may be missing. Equal entries are not always repeated. Inconclusive results and toxic doses are left out.

Consider `CC(=O)O.CC(=O)O.CC(=O)O.CC(=O)O.[Rh].[Rh]`, for which the T/C (dose: 1.56 mg/kg/injection, schedule: Q01DX009 (ip), vehicle: Klucel (hydroxypropylcellulose) (HPC)) was 111 % of control; the T/C (dose: 3.13 mg/kg/injection, schedule: Q01DX009 (ip), vehicle: Klucel (hydroxypropylcellulose) (HPC)) is 117 % of control; the T/C (dose: 6.25 mg/kg/injection, schedule: Q01DX009 (ip), vehicle: Klucel (hydroxypropylcellulose) (HPC)) is 99 % of control; the T/C (dose: 6.25 mg/kg/injection, schedule: Q04DX003 (ip), vehicle: saline) was 100 % of control; the T/C (dose: 12.5 mg/kg/injection, schedule: Q01DX009 (ip), vehicle: Klucel (hydroxypropylcellulose) (HPC)) is 115 % of control; the T/C (dose: 12.5 mg/kg/injection, schedule: Q04DX003 (ip), vehicle: saline) is 100 % of control. For the same molecule, under “dose: 25.0 mg/kg/injection, schedule: Q04DX003 (ip), vehicle: saline”, the T/C is 122 % of control.
As for `COC(=O)C1(C(=O)OC)ON1C(C)C` (centres undefined), the T/C is 98 % of control under setting [1], 94 % of control under setting [2] and 116 % of control under setting [3].
On to `O=C(C=C(C(F)(F)F)C(F)(F)F)c1ccc(C(=O)C=C(C(F)(F)F)C(F)(F)F)cc1`, for which the T/C under setting [4] was 118 % of control and the T/C under setting [5] was 100 % of control.
For `CCN(CC)CCCC(C)Nc1nc(-c2ccccc2)nc2ccccc12` (centres undefined), the T/C was 99 % of control (dose: 50.0 mg/kg/injection, schedule: Q01DX005 (ip), vehicle: saline); 101 % of control (dose: 100.0 mg/kg/injection, schedule: Q01DX005 (ip), vehicle: saline); 110 % of control (dose: 200.0 mg/kg/injection, schedule: Q01DX005 (ip), vehicle: saline).
Turning to `S=C(Nc1ccccc1)P(C(=S)Nc1ccccc1)C1CCCCC1`, the T/C runs as follows: under setting [6], 108 % of control; under setting [7], 101 % of control; under setting [8], 99 % of control.
Consider `S=C1SCN(Cc2ccco2)CN1Cc1ccco1`, for which the T/C is 94 % of control under setting [9] and 94 % of control under setting [10].
Regarding `CC1(C)C(c2ccccc2)CC(c2cccc(O)c2)=[N+]1[O-]` (centres undefined), the T/C under setting [11] is 97 % of control, the T/C under setting [12] is 97 % of control and the T/C under setting [13] is 101 % of control.
As for `Cc1cc(Cl)c2cc3c(cc2n1)OCO3`, the T/C by setting is: under setting [6], 106 % of control; under setting [7], 104 % of control; under setting [8], 98 % of control.
Take `C1CN2CCN3CCCN(CCN(C1)C2)C3`: the T/C is, setting by setting: (dose: 12.5 mg/kg/injection, schedule: Q01DX005 (ip), vehicle: saline) 102 % of control; (dose: 25.0 mg/kg/injection, schedule: Q01DX005 (ip), vehicle: saline) 107 % of control; under setting [14], 101 % of control.
As to `COc1ccc(/C=C(/C#N)c2ccc(Cl)cc2)cc1`, the T/C reads like this: under setting [15], 92 % of control; under setting [9], 92 % of control; under setting [10], 95 % of control; under setting [16], 93 % of control.
As for `O=NN(CCCl)C(=O)N[C@H]1CCCC[C@@H]1Cl`, the T/C reads like this: under setting [15], 250 % of control; (dose: 33.0 mg/kg/injection, schedule: Q04DX003 (ip), vehicle: saline with Tween-80) 200 % of control; under setting [9], 109 % of control; under setting [4], 300 % of control; under setting [5], 90 % of control.
As for `O=C(N/C(=C\c1ccccc1)C(=O)N1CCN(Cc2ccccc2)CC1)c1ccccc1`, the T/C runs as follows: under setting [14], 89 % of control; under setting [17], 88 % of control.
As for `ClC1(Cl)C2CCCCC21` (centres undefined), the T/C is, setting by setting: under setting [9], 100 % of control; under setting [10], 90 % of control.
For `CCN(CC)CN1C(=O)C2C3C=CC(C2C1=O)C1C2C(=O)N(CN(CC)CC)C(=O)C2C31` (centres undefined), the T/C was 103 % of control under setting [15]; 102 % of control and 111 % of control under setting [9]; 116 % of control and 117 % of control and 119 % of control under setting [10]; 119 % of control under setting [16]; 111 % of control (dose: 400.0 mg/kg/injection, schedule: Q01DX009 (ip), vehicle: saline with Tween-80).
`CCc1c(-c2ccccc2)[nH]c2ccccc12`: the T/C reads like this: under setting [15], 105 % of control; (dose: 50.0 mg/kg/injection, schedule: Q01DX009 (ip), vehicle: saline + alcohol) 116 % of control; under setting [9], 100 % of control; (dose: 100.0 mg/kg/injection, schedule: Q01DX009 (ip), vehicle: saline + alcohol) 112 % of control; under setting [10], 115 % of control; (dose: 200.0 mg/kg/injection, schedule: Q01DX009 (ip), vehicle: saline + alcohol) 103 % of control. For the same molecule, the T/C (dose: 400.0 mg/kg/injection, schedule: Q01DX009 (ip), vehicle: saline + alcohol) was 108 % of control.
In the case of `CCCCNc1nc(C(F)(F)F)nc2nc[nH]c12`, the T/C reads like this: under setting [6], 103 % of control; under setting [7], 94 % of control; under setting [8], 94 % of control.
With `CC(=O)N/N=C1/C=C2C/C(=N\NC(C)=O)C=C2C1`, the T/C was 99 % of control under setting [14]; 95 % of control under setting [17]; 90 % of control (dose: 200.0 mg/kg/injection, schedule: Q01DX005 (ip), vehicle: saline with Tween-80).
Regarding `[N-]=[N+]=NC1(c2ccccc2)C(=O)c2ccccc2C1=O`, the T/C under setting [5] was 94 % of control and the T/C under setting [18] is 105 % of control.
Turning to `O=C(Oc1ccc[nH]c1=O)c1cccc(Cl)c1`, the T/C runs as follows: (dose: 25.0 mg/kg/injection, schedule: Q01DX009 (ip), vehicle: distilled water + Tween-80) 100 % of control; (dose: 50.0 mg/kg/injection, schedule: Q01DX009 (ip), vehicle: distilled water + Tween-80) 100 % of control; (dose: 100.0 mg/kg/injection, schedule: Q01DX009 (ip), vehicle: distilled water + Tween-80) 95 % of control; (dose: 200.0 mg/kg/injection, schedule: Q01DX009 (ip), vehicle: distilled water + Tween-80) 99 % of control; (dose: 400.0 mg/kg/injection, schedule: Q01DX009 (ip), vehicle: distilled water + Tween-80) 97 % of control.
Consider `Clc1cccc(N=Cc2ccc(C=Nc3cccc(Cl)c3Cl)cc2)c1Cl`, for which the T/C reads like this: under setting [11], 94 % of control; under setting [12], 91 % of control; under setting [13], 90 % of control.
As for `C(=N/Nc1ccccc1)/C(=N\Nc1ccccc1)C1CCN(Cc2ccccc2)CC1`, the T/C is 103 % of control (dose: 25.0 mg/kg/injection, schedule: Q01DX001 (ip), vehicle: Klucel (hydroxypropylcellulose) (HPC)); 107 % of control (dose: 50.0 mg/kg/injection, schedule: Q01DX001 (ip), vehicle: Klucel (hydroxypropylcellulose) (HPC)); 100 % of control (dose: 100.0 mg/kg/injection, schedule: Q01DX001 (ip), vehicle: Klucel (hydroxypropylcellulose) (HPC)).
On to `C1Cc2[nH]nc(-c3n[nH]c4c3CCC4)c2C1`, for which the T/C is 97 % of control under setting [1], 97 % of control under setting [2] and 97 % of control under setting [3].
For `O=C(O)C(CCc1ccccc1)NCc1ccccc1` (centres undefined), the T/C runs as follows: (dose: 25.0 mg/kg/injection, schedule: Q01DX009 (ip), vehicle: saline) 102 % of control; (dose: 50.0 mg/kg/injection, schedule: Q01DX009 (ip), vehicle: saline) 88 % of control; (dose: 100.0 mg/kg/injection, schedule: Q01DX009 (ip), vehicle: saline) 88 % of control and 94 % of control; (dose: 200.0 mg/kg/injection, schedule: Q01DX009 (ip), vehicle: saline) 95 % of control; (dose: 400.0 mg/kg/injection, schedule: Q01DX009 (ip), vehicle: saline) 89 % of control.
Regarding `CCCCc1ccc(Sc2cccc3c2C(=O)c2c(Sc4ccc(CCCC)cc4)cccc2C3=O)cc1`, the T/C was 95 % of control under setting [5]; 90 % of control under setting [18]; 86 % of control (dose: 400.0 mg/kg/injection, schedule: Q04DX003 (ip), vehicle: saline with Tween-80).

For the origin of these results see PubChem BioAssay AID330 (DTP/NCI, 2004).
